Measured values: BigSolDB 2.1

C=C(C)[C@@H]1CC[C@]2(C(=O)O)CC[C@]3(C)[C@H](CC[C@@H]4[C@@]5(C)CC[C@H](O)C(C)(C)[C@@H]5CC[C@]43C)[C@@H]12
solubility (mole fraction)
Conditions | 278.2 K | 288.2 K | 298.2 K | 308.2 K | 318.2 K
in THF | 0.00975 | 0.0136 | 0.0206 | 0.0276 | 0.0388
in acetone | 0.000398 | 0.000502 | 0.000598 | 0.000829 | 0.00103
in ethanol | 0.000651 | 0.000819 | 0.00107 | 0.00135 | 0.00171
in ethyl acetate | 0.00045 | 0.000515 | 0.000733 | 0.000956 | 0.00124
in ethyl formate | 0.0002 | 0.000272 | 0.000428 | 0.000548 | 0.000786
in isopropanol | 0.000765 | 0.00092 | 0.0012 | 0.00149 | 0.00196
in methanol | 0.00019 | 0.000248 | 0.000339 | 0.000461 | 0.000734
in n-butanol | 0.00118 | 0.00149 | 0.00192 | 0.00234 | 0.003
in n-butyl acetate | 0.000824 | 0.001 | 0.0012 | 0.00159 | 0.00193
in n-hexanol | 0.00226 | 0.00283 | 0.00324 | 0.00378 | 0.00454
in n-pentanol | 0.00199 | 0.00228 | 0.00266 | 0.00309 | 0.00363
in n-propanol | 0.00103 | 0.00137 | 0.00178 | 0.00221 | 0.0028
in sec-butanol | 0.000821 | 0.00113 | 0.00149 | 0.00189 | 0.00245
